Measurements reported in patent US20250262191A1, “NEW CRYSTAL FORM OF NITROGEN-CONTAINING TRICYCLIC COMPOUND AND USE THEREOF” (SUNSHINE LAKE PHARMA CO., LTD., priority 2021, published 2025).

Legend:
[1] = Pharmacokinetic experiment in Beagle dogs, oral capsules; assay type: in vivo; conditions: male Beagle dogs, 5 mg/kg
Procedure: The crystal form H of the compound having Formula (I) was filled into capsules, which were used for oral administration.
Three male Beagle dogs weighing 8-12 kg were orally administered with capsules containing the test sample at a dose of 5 mg/kg, and blood samples were taken at time points of 0.25 h, 0.5 h, 1.0 h, 2.0 h, 4.0 h, 6.0 h, 8.0 h and 24 h. Standard curve was plotted based on concentrations of the samples in a suitable range, the concentration of the test sample in the plasma sample was measured and quantified by AB SCIEX API4000 LC-MS/MS at MRM mode. Pharmacokinetic parameters were calculated according to drug concentration-time curve using a noncompartmental method by WinNonLin 6.3 software.

[2] = Stability experiment (high-temperature, high-humidity and photostability tests); assay type: physicochemical
Procedure: (§1) (1) High-temperature test: A batch of the test sample was taken into a flat weighing bottle, divided into ≤5 mm thick thin layer. The sample was placed at 60° C. for 30 days. The sample was then sampled at day 5, day 13 and day 30, and the change of the sample's color was observed. The purity of the sample was detected by HPLC.
as §1, with “(2) High-humidity” for “(1) High-temperature”, “25° C., RH 90%±5%” for “60° C.”
as §1, with “(3) Photostability” for “(1) High-temperature”, “placed in an opened light box (with UV)” for “placed”, “the illuminance […], UV light ≥0.7 w/m^2” for “60° C.”

[3] = Hygroscopicity experiment by dynamic moisture adsorption (DVS); assay type: physicochemical; conditions: relative humidity of 80%, 25° C.
Procedure: The hygroscopicity of the present invention is measured using the DVS INT-Std dynamic moisture and gas adsorption analyzer of the Surface Measurement Systems Company in UK. The humidity test range was 0%-95%, the air flow was 200 mL/min, the temperature was 25° C., test point: take one test point per […] 5% humidity.
An appropriate amount of the test sample was taken and the hygroscopicity of the test sample was tested by dynamic moisture adsorption device. The description of the hygroscopic characteristics and the definition of the hygroscopic weight gain (Appendix 9103 of Chinese Pharmacopoeia 2020 Edition, Guidelines for Drug Hygroscopicity Tests, experimental conditions: 25° C.±1° C., 80%±2% relative humidity) are described in the table below: […]

[4] = High-humidity 25° C., RH 90%±5%, day 5
[5] = High-humidity 25° C., RH 90%±5%, day 13
[6] = High-humidity 25° C., RH 90%±5%, day 30
[7] = High-temperature 60° C., day 13
[8] = High-temperature 60° C., day 30
[9] = Lighting (light box with UV), day 5
[10] = Lighting (light box with UV), day 13
[11] = Lighting (light box with UV), day 30

O=C(O)c1ccc2c(c1)Oc1ccc(OCc3c(-c4c(Cl)cccc4Cl)noc3C3CC3)nc1C1(CC1)C2 [Crystal form H, 2-((5-cyclopropyl-3-(2,6-dichlorophenyl)isoxazol-4-yl)methoxy)-10H-spiro[benzo[6,7]oxepino[3,2-b]pyridine-11,1′-cyclopropane]-7-carboxylic acid]
AUC(0-t) ([1]; dog, plasma): 1130 ng·h/mL | Cmax ([1]; dog, plasma): 514 ng/mL | Tmax ([1]; dog, plasma): 1.33 h | exposure in Beagle dogs [1]: relatively large exposure | Appearance [2, 4]: White | Purity (HPLC) [2, 4]: 99.89% | Appearance [2, 5]: White | Purity (HPLC) [2, 5]: 99.92% | Appearance [2, 6]: White | Purity (HPLC) [2, 6]: 99.85% | Appearance ([2]; High-temperature 60° C., day 5): White | Purity (HPLC) ([2]; High-temperature 60° C., day 5): 99.89% | Appearance [2, 7]: White | Purity (HPLC) [2, 7]: 99.72% | Appearance [2, 8]: White | Purity (HPLC) [2, 8]: 99.86% | Appearance [2, 9]: White | Purity (HPLC) [2, 9]: 99.90% | Appearance [2, 10]: White | Purity (HPLC) [2, 10]: 99.91% | Appearance [2, 11]: White | Purity (HPLC) [2, 11]: 99.72% | Appearance ([2]; day 0): White | Purity (HPLC) ([2]; day 0): 99.83% | crystal structure stability ([2]; high temperature conditions): remains basically unchanged | crystal structure stability ([2]; high temperature, high humidity and/or lighting conditions): remains basically unchanged | changes in the appearance and chemical purity ([2]; high-temperature, high-humidity and/or lighting): no obvious changes | hygroscopic characteristics [3]: lightly hygroscopic
